From publication PMC3216401 (Antiviral research, 2011)
pIC50: −log10 of the molar value. Values joined by “and” are separate entries in the source; they are usually repeats but may differ in a detail not shown here. Identical values can stand only once. Like-named read-outs stand apart in the source and are kept apart here.

Columns and labels:
[1] = test system: influenza A/CA/07/2009 (H1N1); test: microbe, parasite or virus in culture; format: cell-based; settings: H1N1, MDCK, read-out: IC90, VYR Assay
[2] = test system: Influenza A/Sydney/05/97 (H3N2); test: microbe, parasite or virus in culture; format: cell-based; settings: H3N2, MDCK, read-out: IC90, VYR Assay
[3] = test system: A/Brisbane/10/2007 (H3N2); test: microbe, parasite or virus in culture; format: cell-based; settings: Influenza A virus, H3N2, MDCK, read-out: IC90, VYR Assay
[4] = test system: A/Hong Kong/213/2003H (A/Hong Kong/213/2003 × Ann Arbor/6/60 hybrid); test: microbe, parasite or virus in culture; format: cell-based; settings: Influenza A virus, MDCK, read-out: IC90, VYR Assay
[5] = test system: A/Vietnam/1203/04H (A/Vietnam/1203/04 × Ann Arbor/6/60 hybrid); test: microbe, parasite or virus in culture; format: cell-based; settings: Influenza A virus, MDCK, read-out: IC90, VYR Assay
A/Gull/PA/4175/83 (H5N1) [6] = test: microbe, parasite or virus in culture; format: cell-based; settings: Influenza A virus, H5N1, MDCK, read-out: IC90, VYR Assay
B/Malaysia/2506/2004 [7] = test: microbe, parasite or virus in culture; format: cell-based; settings: Influenza B virus, MDCK, read-out: IC90, VYR Assay
B/Florida/4/2006 [8] = test: microbe, parasite or virus in culture; format: cell-based; settings: Influenza B virus, MDCK, read-out: IC90, VYR Assay
influenza viruses = test: microbe, parasite or virus in culture; format: cell-based, influenza A and B viruses; settings: Influenza A virus
[9] = test system: influenza A/CA/07/2009 (H1N1)
[10] = test system: influenza A/CA/07/2009 (H1N1); remark: listed apart in the source
[11] = test system: Influenza A/Sydney/05/97 (H3N2)
[12] = test system: Influenza A/Sydney/05/97 (H3N2); remark: listed apart in the source
[13] = test system: A/Brisbane/10/2007 (H3N2)
[14] = test system: A/Vietnam/1203/04H (A/Vietnam/1203/04 × Ann Arbor/6/60 hybrid)
A/Duck/MN/1525/81 (H5N1) [15] = test system: A/Duck/MN/1525/81 (H5N1)
A/Duck/MN/1525/81 (H5N1) [16] = test system: A/Duck/MN/1525/81 (H5N1); remark: listed apart in the source
B/Florida/4/2006 [17] = test system: B/Florida/4/2006
[18] = test system: influenza A/Vietnam/1203/2004 H5N1 virus; settings: in vivo
[19] = test system: influenza A/CA/07/2009 (H1N1); test: microbe, parasite or virus in culture; settings: H1N1, MDCK, read-out: IC50, Visual Assay
[20] = test system: influenza A/CA/07/2009 (H1N1); test: microbe, parasite or virus in culture; settings: H1N1, MDCK, read-out: IC50, Neutral Red Uptake Assay
[21] = test system: Influenza A/Sydney/05/97 (H3N2); test: microbe, parasite or virus in culture; settings: H3N2, MDCK, read-out: IC50, Visual Assay
[22] = test system: Influenza A/Sydney/05/97 (H3N2); test: microbe, parasite or virus in culture; settings: H3N2, MDCK, read-out: IC50, Neutral Red Uptake Assay
[23] = test system: A/Brisbane/10/2007 (H3N2); test: microbe, parasite or virus in culture; settings: Influenza A virus, H3N2, MDCK, read-out: IC50, Visual Assay
[24] = test system: A/Brisbane/10/2007 (H3N2); test: microbe, parasite or virus in culture; settings: Influenza A virus, H3N2, MDCK, read-out: IC50, Neutral Red Uptake Assay
[25] = test system: A/Hong Kong/213/2003H (A/Hong Kong/213/2003 × Ann Arbor/6/60 hybrid); test: microbe, parasite or virus in culture; settings: Influenza A virus, H1N1|H5N1, MDCK, read-out: IC50, Visual Assay
[26] = test system: A/Hong Kong/213/2003H (A/Hong Kong/213/2003 × Ann Arbor/6/60 hybrid); test: microbe, parasite or virus in culture; settings: Influenza A virus, H1N1|H5N1, MDCK, read-out: IC50, Neutral Red Uptake Assay
[27] = test system: A/Vietnam/1203/04H (A/Vietnam/1203/04 × Ann Arbor/6/60 hybrid); test: microbe, parasite or virus in culture; settings: Influenza A virus, H1N1|H5N1, MDCK, read-out: IC50, Visual Assay
A/Gull/PA/4175/83 (H5N1) [28] = test: microbe, parasite or virus in culture; settings: Influenza A virus, H5N1, MDCK, read-out: IC50, Visual Assay
A/Gull/PA/4175/83 (H5N1) [29] = test: microbe, parasite or virus in culture; settings: Influenza A virus, H5N1, MDCK, read-out: IC50, Neutral Red Uptake Assay
A/Duck/MN/1525/81 (H5N1) [30] = test: microbe, parasite or virus in culture; settings: Influenza A virus, H5N1, MDCK, read-out: IC50, Neutral Red Uptake Assay
B/Malaysia/2506/2004 [31] = test: microbe, parasite or virus in culture; settings: Influenza B virus, MDCK, read-out: IC50, Neutral Red Uptake Assay
B/Florida/4/2006 [32] = test: microbe, parasite or virus in culture; settings: Influenza B virus, MDCK, read-out: IC50, Neutral Red Uptake Assay
[33] = MDCK, read-out: IC90 values, range over viruses of Table 3

SMILES	IC90 [1] [µM]	IC90 [2] [µM]	IC90 [3] [µM]	IC90 [4] [µM]	IC90 [5] [µM]	IC90 (A/Gull/PA/4175/83 (H5N1) [6]) [µM]	IC90 (B/Malaysia/2506/2004 [7]) [µM]	IC90 (B/Florida/4/2006 [8]) [µM]	IC90 (influenza viruses; [33]) [µM]	SI (CC50/IC50), Visual Assay [9]	SI (CC50/IC50), Neutral Red Uptake Assay [10]	SI (CC50/IC50), Visual Assay [11]	SI (CC50/IC50), Neutral Red Uptake Assay [12]	SI (CC50/IC50), Visual Assay [13]	SI (CC50/IC50), Visual Assay [14]	SI (CC50/IC50), Visual Assay (A/Duck/MN/1525/81 (H5N1) [15])	SI (CC50/IC50), Neutral Red Uptake Assay (A/Duck/MN/1525/81 (H5N1) [16])	SI (CC50/IC50), Visual Assay (B/Florida/4/2006 [17])	pIC50 [19]	pIC50 [20]	further results
Nc1ccn([C@@H]2O[C@H](CO)[C@@H](O)C2(F)F)c(=O)n1 [2’-deoxy-2’, 2’-difluorocytidine, reference compound]	0.13	1.6	0.14	0.04	0.32	0.13	0.11	1.7	0.03 to 2.1	11.7	6.9	67	5.7	43	>1000	>1700	>880	>1400	6.74	6.80	Inhibition in the H5N1 mouse model [18]: not inhibitory; Toxicity in the H5N1 mouse model [18]: very toxic; Protection against lethal challenge ([18]; mouse): not significantly effective; pIC50 [21]: 6.74; pIC50 [22]: 5.92; pIC50 [23]: 6.89; pIC50 [24]: 6.80; pIC50 [25]: > 7.49; pIC50 [26]: 7.19; pIC50 [27]: > 6.49; pIC50 (A/Gull/PA/4175/83 (H5N1) [28]): 6.68; pIC50 (A/Gull/PA/4175/83 (H5N1) [29]): 6.57; pIC50 (A/Duck/MN/1525/81 (H5N1) [30]): > 6.49; pIC50 (B/Malaysia/2506/2004 [31]): 7.17; pIC50 (B/Florida/4/2006 [32]): > 6.49
Nc1ccn([C@@H]2O[C@H](CO)[C@@H](O)[C@H]2F)c(=O)n1 [2’-deoxy-2’-fluorocytidine, 2'-deoxy-2'-fluorocytidine]	4.6	6.7	6.8	5.1	2.9	6.1	7.3	2.1	1.2 to 7.3	>31	>24	>170	>40	>100	>48	>400	>480	>100	5.49	5.39	IC90 (influenza viruses; H1N1|H3N2, MDCK, read-out: IC90 values, range for the H3N2 and H1N1 viruses tested): 4.6 to 6.8 µM; IC90 (influenza viruses; H1N1|H5N1, MDCK, read-out: IC90 values, range for the hybrid H1N1 viruses expressing the H5N1 HA and NA proteins): 2.9 to 5.1 µM; Maximum tolerated effective dose ([18]; female, BALB/c, mouse, ip): 60 mg/kg/day; Lung Score ± SD ([18]; mouse): 0.4 ± 0.25 and 0.2 ± 0.27; Mice protected from lethal effects ([18]; mouse): 60%; Protection from death, i.p. ([18]; mouse): partially, but significantly protected from death; Protection from mortality, per os ([18]; mouse): not protected from mortality; Virus Lung Titers ± SD ([18]; mouse): 3.60 ± 1.303 Log10/g and 4.01 ± 0.713 Log10/g; pIC50 [21]: 6.23; pIC50 [22]: 5.60; pIC50 [23]: 6.00; pIC50 [24]: 4.85; pIC50 [25]: 5.89; pIC50 [26]: 5.14; pIC50 [27]: 5.68; pIC50 (A/Gull/PA/4175/83 (H5N1) [28]): 6.04; pIC50 (A/Gull/PA/4175/83 (H5N1) [29]): 5.96; pIC50 (A/Duck/MN/1525/81 (H5N1) [30]): 6.68; pIC50 (B/Malaysia/2506/2004 [31]): 5.39; pIC50 (B/Florida/4/2006 [32]): 5.85
